65 molecules from BindingDB's records for PubMed 39442337 (China Pharmaceutical University) can be followed below.

A short description of one experiment: Antagonist activity at PAR4 in mouse washed platelets assessed as inhibition of gamma-PAR4 agonist peptide (AYPGKF-NH2)-induced platelet aggregation preincubated for 5 mins followed by peptide addition and measured after 5 mins by aggregometer.
The IC50 is the concentration needed to halve the response being measured. For the molecule `COc1cc(Cl)c2nc(-c3cc(C)cc4cncnc34)sc2c1`, the IC50 is 72 nM.

Turning to `COc1cc(Cl)c2nc(-c3cc(C)cc4cnc(C)nc34)sc2c1`, the IC50 came to 64 nM.

`COc1cc(Cl)c2nc(-c3cc(C)cc4cnc(OC)nc34)sc2c1`: the IC50 was found to be 32 nM. In the case of `COc1cc(Cl)c2nc(-c3cc(C)cc4cnc(OC(F)F)nc34)sc2c1`, the IC50 is 87 nM. Turning to `CCOc1ncc2cc(C)cc(-c3nc4c(Cl)cc(OC)cc4s3)c2n1`, the IC50 was 567 nM. Turning to `COc1cc(Cl)c2nc(-c3cc(C)cc4cnc(OC(C)C)nc34)sc2c1`, the IC50 was found to be 773 nM. With `COc1cc(Cl)c2nc(-c3cc(C)cc4cnc(OCC(C)C)nc34)sc2c1`, the IC50 is above 1000 nM. `COc1cc(Cl)c2nc(-c3cc(C)cc4cnc(OC5CCCC5)nc34)sc2c1`: the IC50 was found to be 986 nM. Turning to `COCCOc1ncc2cc(C)cc(-c3nc4c(Cl)cc(OC)cc4s3)c2n1`, the IC50 is above 1000 nM. As to `COCCCOc1ncc2cc(C)cc(-c3nc4c(Cl)cc(OC)cc4s3)c2n1`, the concentration for half-maximal inhibition (IC50) came to 963 nM. Take `COc1cc(Cl)c2nc(-c3cc(C)cc4cnc(SC)nc34)sc2c1`: the IC50 came out at 89 nM.

Regarding `CNc1ncc2cc(C)cc(-c3nc4c(Cl)cc(OC)cc4s3)c2n1`, the half-maximal inhibitory concentration (IC50) was found to be 98 nM. Same read-out and setting: the value for `COc1cc(Cl)c2nc(-c3cc(C)cc4cnc(N(C)C)nc34)sc2c1` was 105 nM. For `COc1cc(Cl)c2nc(-c3cc(C)cc4cnc(N5CCOCC5)nc34)sc2c1`, the IC50 was 220 nM. Same read-out and setting: the value for `COc1cc(Cl)c2nc(-c3cc(C)cc4cnc(N5CCCCC5)nc34)sc2c1` was 335 nM; that for `COc1cc(Cl)c2nc(-c3cc(C)cc4cnc(N5CCC6(CC5)OCCO6)nc34)sc2c1` was above 1000 nM; that for `COc1cc(Cl)c2nc(-c3cc(C)cc4cnc(N5CC6(COC6)C5)nc34)sc2c1` was above 1000 nM.

Take `COc1ncc2cc(C)cc(-c3nc4ccccc4s3)c2n1`: the IC50 came to 563 nM.

With `COc1ncc2cc(C)cc(-c3nc4c(C)cc5c(c4s3)OCCO5)c2n1`, the IC50 came to 117 nM. Regarding `COc1ncc2cc(C)cc(-c3nc4c(Cl)cc(Cl)cc4s3)c2n1`, the IC50 was 356 nM. For `COc1ccc2nc(-c3cc(C)cc4cnc(OC)nc34)sc2c1`, the IC50 amounted to 89 nM. Take `COc1cc(F)c2nc(-c3cc(C)cc4cnc(OC)nc34)sc2c1`: the IC50 was determined as 41 nM. On the same count and under the same terms, under `COc1ncc2cc(C)cc(-c3nc4cc(F)c(OC)cc4s3)c2n1` stands 30 nM; under `COc1cc(Cl)c2nc(-c3cc(C)cc4nc(OC)ncc34)sc2c1`, 46 nM; under `COc1cc(F)c2nc(-c3cc(C)cc4nc(OC)ncc34)sc2c1`, 80 nM.

For the molecule `COc1ccc2nc(-c3cc(C)cc4nc(OC)ncc34)sc2c1`, the IC50 turned out to be 103 nM. For the molecule `COc1cc(OC)c2nc(-c3cc(C)cc4nc(OC)ncc34)sc2c1`, the IC50 was determined as 223 nM. With `COc1ncc2c(-c3nc4ccccc4s3)cc(C)cc2n1`, the IC50 amounted to 368 nM. `COc1cc(C)c2nc(-c3cc(C)cc4nc(OC)ncc34)sc2c1`: the IC50 worked out at 163 nM. On to `COc1ncc2c(-c3nc4cc(F)c(OC)cc4s3)cc(C)cc2n1`, for which the IC50 was determined as 21 nM. `COc1ncc2c(-c3nc4cc(F)c(OCCO)cc4s3)cc(C)cc2n1`: the IC50 was 27 nM. With `CCOc1ncc2c(-c3nc4c(Cl)cc(OC)cc4s3)cc(C)cc2n1`, the IC50 stood at 223 nM.

In the case of `CCOc1ncc2c(-c3nc4c(F)cc(OC)cc4s3)cc(C)cc2n1`, the IC50 turned out to be 274 nM. In the case of `CCOc1ncc2c(-c3nc4cc(F)c(OC)cc4s3)cc(C)cc2n1`, the IC50 was determined as 369 nM. Turning to `COc1cc(Cl)c2nc(-c3cc(C)cc4nc(OC(C)C)ncc34)sc2c1`, the IC50 came to 456 nM. For `COc1ccc2nc(-c3cc(C)cc4nc(OC(C)C)ncc34)sc2c1`, the IC50 was 362 nM. In the case of `COCOc1ncc2c(-c3nc4c(Cl)cc(OC)cc4s3)cc(C)cc2n1`, the IC50 was found to be 45 nM. Consider `COCOc1ncc2c(-c3nc4c(F)cc(OC)cc4s3)cc(C)cc2n1`, for which the IC50 is 89 nM. For `COCOc1ncc2c(-c3nc4cc(F)c(OC)cc4s3)cc(C)cc2n1`, the IC50 stood at 25 nM. As for `COCOc1ncc2c(-c3nc4ccc(OC)cc4s3)cc(C)cc2n1`, the IC50 stood at 109 nM. In the case of `CNc1ncc2c(-c3nc4c(Cl)cc(OC)cc4s3)cc(C)cc2n1`, the IC50 is 223 nM. Still for that read-out and setting: under `COc1cc(Cl)c2nc(-c3cc(C)cc4nc(SC)ncc34)sc2c1` stands 136 nM; under `COc1cc2sc(-c3cc(C)cc4nc(SC)ncc34)nc2cc1F`, 96 nM; under `COc1ccc2nc(-c3cc(C)cc4nc(SC)ncc34)sc2c1`, 223 nM.

For `COc1cc(OC)c2nc(-c3cc(C)cc4nc(SC)ncc34)sc2c1`, the IC50 is above 1000 nM. In the case of `COCc1ncc2c(-c3nc4cc(F)c(OCCOC(=O)Nc5cccc(C#N)c5)cc4s3)cc(C)cc2n1`, the IC50 came to 69 nM. The same measure, in the same setting: under `COCc1ncc2c(-c3nc4cc(F)c(OCCOC(=O)Nc5cc(F)cc(C#N)c5)cc4s3)cc(C)cc2n1` stands 19 nM. For `COCc1ncc2c(-c3nc4cc(F)c(OCCOC(=O)Nc5ccc(C(=O)N6CCOCC6)cc5)cc4s3)cc(C)cc2n1`, the IC50 stood at 89 nM. Regarding `COCc1ncc2c(-c3nc4cc(F)c(OCCOC(=O)N5CCOCC5)cc4s3)cc(C)cc2n1`, the IC50 was 756 nM. With `COCc1ncc2c(-c3nc4cc(F)c(OCCOC(=O)OC)cc4s3)cc(C)cc2n1`, the IC50 stood at 643 nM. With `COc1ncc2c(-c3nc4cc(F)c5c(c4s3)C[C@H](COC(=O)Nc3cccc(C#N)c3)O5)cc(C)cc2n1`, the IC50 turned out to be 15 nM. In the case of `COc1ncc2c(-c3nc4cc(F)c5c(c4s3)C[C@H](COC(=O)Nc3cc(F)cc(C#N)c3)O5)cc(C)cc2n1`, the IC50 was 8.6 nM.

For `COc1ncc2c(-c3nc4cc(F)c5c(c4s3)C[C@H](COC(=O)Nc3ccc(OC)c(F)c3)O5)cc(C)cc2n1`, the IC50 was found to be 169 nM. Turning to `COc1ccc(NC(=O)OC[C@H]2Cc3c(c(F)cc4nc(-c5cc(C)cc6nc(OC)ncc56)sc34)O2)c(C)c1`, the IC50 was 187 nM. Same read-out and setting: under `COc1ccc(NC(=O)OC[C@H]2Cc3c(c(F)cc4nc(-c5cc(C)cc6nc(OC)ncc56)sc34)O2)cc1` stands 96 nM. Same read-out and setting: under `COc1ncc2c(-c3nc4cc(F)c5c(c4s3)C[C@H](COC(=O)Nc3ccc(C)cc3)O5)cc(C)cc2n1` stands 73 nM. Regarding `COc1ncc2c(-c3nc4cc(F)c5c(c4s3)C[C@H](COC(=O)Nc3ccc(C)cc3F)O5)cc(C)cc2n1`, the IC50 was found to be 51 nM. As for `COc1ccc(NC(=O)OC[C@H]2Cc3c(c(F)cc4nc(-c5cc(C)cc6nc(OC)ncc56)sc34)O2)cn1`, the IC50 stood at 356 nM.

Take `COc1ncc2c(-c3nc4cc(F)c5c(c4s3)C[C@H](COC(=O)Nc3cnc(C)nc3)O5)cc(C)cc2n1`: the IC50 was 689 nM. Still for that read-out and setting: under `COc1ncc2c(-c3nc4cc(F)c5c(c4s3)C[C@H](COC(=O)Nc3ccc(C(=O)N4CCOCC4)cc3)O5)cc(C)cc2n1` stands 417 nM; under `COc1ncc2c(-c3nc4cc(F)c5c(c4s3)C[C@H](COC(=O)N3CCOCC3)O5)cc(C)cc2n1`, 168 nM. Still for that read-out and setting: the value for `COC(=O)OC[C@H]1Cc2c(c(F)cc3nc(-c4cc(C)cc5nc(OC)ncc45)sc23)O1` was 535 nM. Take `COc1ncc2c(-c3nc4cc(F)c5c(c4s3)C[C@@H](COC(=O)Nc3ccc(C(=O)N4CCOCC4)cc3)O5)cc(C)cc2n1`: the IC50 was 165 nM. For the molecule `COc1ncc2c(-c3nc4cc(F)c5c(c4s3)C[C@@H](COC(=O)Nc3cc(F)cc(C#N)c3)O5)cc(C)cc2n1`, the IC50 was determined as 109 nM.

As for `COc1ncc2c(-c3nc4cc(F)c5c(c4s3)C[C@@H](COC(=O)N3CCOCC3)O5)cc(C)cc2n1`, the half-inhibitory concentration (IC50) amounted to 304 nM.

A further experiment is described as follows: Antagonist activity at PAR4 in human platelet rich plasma assessed as inhibition of gamma-PAR4 agonist peptide (AYPGKF-NH2)-induced platelet aggregation preincubated for 5 mins followed by peptide addition and measured after 5 mins by aggregometer.
As to `COCc1ncc2c(-c3nc4cc(F)c(OCCOC(=O)Nc5cc(F)cc(C#N)c5)cc4s3)cc(C)cc2n1`, the IC50 was 9.5 nM. Still for that read-out and setting: under `COc1ncc2c(-c3nc4cc(F)c5c(c4s3)C[C@H](COC(=O)Nc3cccc(C#N)c3)O5)cc(C)cc2n1` stands 6.4 nM; under `COc1ncc2c(-c3nc4cc(F)c5c(c4s3)C[C@H](COC(=O)Nc3cc(F)cc(C#N)c3)O5)cc(C)cc2n1`, 3.5 nM.
